Source: patent publication US10294202B2, “Pyrrolidinones as herbicides” (FMC Corporation, priority 2013, dated 2019)

What was measured:
cupgrass, woolly = test: Test C pre-/postemergence herbicide test; format: in vivo, Eriochloa villosa
Procedure, shortened: (§1)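 Compound solutions contained surfactant in a non-phytotoxic solvent. These were sprayed onto pots of loam/sand sown with seeds, and onto young plants (2 to 18 cm, 1- to 4-leaf) in sphagnum peat–vermiculite mix. Visual injury scores (0 none, 100 complete control) were recorded after 13 to 15 days.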

sunflower = test: Test C pre-/postemergence herbicide test; format: in vivo, Helianthus annuus; conditions: Preemergence
Procedure, shortened: as §1

goosegrass = test: Test C pre-/postemergence herbicide test; format: in vivo, Eleusine indica
Procedure, shortened: as §1

cocklebur = test: Test C pre-/postemergence herbicide test; format: in vivo, Xanthium strumarium
Procedure, shortened: as §1

Russian thistle = test: Test C pre-/postemergence herbicide test; format: in vivo, Salsola kali; conditions: Preemergence
Procedure, shortened: as §1

nightshade = test: Test C pre-/postemergence herbicide test; format: in vivo, Solanum ptycanthum; conditions: Preemergence
Procedure, shortened: as §1

mustard, wild = test: Test D pre-/postemergence herbicide test; format: in vivo, Sinapis arvensis; conditions: Postemergence, Mustard, Wild, scale 0 to 100
Procedure, shortened: (§2)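 Plants were maintained 7 to 21 days in a controlled environment after treatment and then scored visually against controls (0 no effect, 100 complete control). Seeds in silt loam received preemergence sprays, and 1- to 4-leaf plants received postemergence sprays, both formulated in non-phytotoxic solvent with surfactant.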

bromegrass, downy = test: Test C pre-/postemergence herbicide test; format: in vivo, Bromus tectorum
Procedure, shortened: as §1

foxtail, green = test: Test C pre-/postemergence herbicide test; format: in vivo, Setaria viridis
Procedure, shortened: as §1

surinam grass = test: Test C pre-/postemergence herbicide test; format: in vivo, Brachiaria decumbens
Procedure, shortened: as §1

wheat, winter = test: Test D pre-/postemergence herbicide test; format: in vivo, Triticum aestivum; conditions: Postemergence, Wheat, Winter, scale 0 to 100
Procedure, shortened: as §2

wheat, spring = test: Test D pre-/postemergence herbicide test; format: in vivo, Triticum aestivum; conditions: Postemergence, Wheat, Spring, scale 0 to 100
Procedure, shortened: as §2

bermudagrass = test: Test C pre-/postemergence herbicide test; format: in vivo, Cynodon dactylon
Procedure, shortened: as §1

[1] = Postemergence, 31 g ai/ha, scale 0 (no effect) to 100 (complete control)
[2] = Postemergence, 62 g ai/ha, scale 0 to 100 (0 no effect, 100 complete control)
[3] = Postemergence, 125 g ai/ha, scale 0 to 100 (0 no effect, 100 complete control)
[4] = Postemergence, 250 g ai/ha, scale 0 to 100 (0 no effect, 100 complete control)
[5] = Preemergence, 31 g ai/ha, scale 0 to 100 (0 no effect, 100 complete control)
[6] = Preemergence, 62 g ai/ha, scale 0 to 100
[7] = Preemergence, 125 g ai/ha, scale 0 to 100 (0 no effect, 100 complete control)
[8] = Preemergence, 250 g ai/ha, scale 0 to 100 (0 no effect, 100 complete control)
[9] = 125 g ai/ha, scale 0 to 100 (0 no effect, 100 complete control)
[10] = Preemergence, 31 g ai/ha, scale 0 to 100, 0 is no effect and 100 is complete control
[11] = 31 g ai/ha, scale 0 to 100, 0 is no effect and 100 is complete control

O=C1NCC(c2cc(F)c(F)c(F)c2)C1C(=O)Nc1ccccc1F (racemic) [Compound 34]
Plant response rating, Cupgrass, Woolly (cupgrass, woolly; [1]): 0
Plant response rating, Cupgrass, Woolly (cupgrass, woolly; [2]): 0
Plant response rating, Cupgrass, Woolly (cupgrass, woolly; [3]): 0
Plant response rating, Cupgrass, Woolly (cupgrass, woolly; [4]): 30
Cupgrass, Woolly plant response rating (cupgrass, woolly; [5]): 50
Plant response rating, Cupgrass, Woolly (cupgrass, woolly; [6]): 85
Plant response rating, Cupgrass, Woolly (cupgrass, woolly; [7]): 95
Plant response rating, Cupgrass, Woolly (cupgrass, woolly; [8]): 95
Plant response rating Sunflower (sunflower; 62 g ai/ha, scale 0 to 100): 0
Plant response rating Sunflower (sunflower; [9]): 0
Plant response rating, Goosegrass (goosegrass; [1]): 10
Plant response rating, Goosegrass (goosegrass; [2]): 15
Plant response rating, Goosegrass (goosegrass; [3]): 15
Plant response rating, Goosegrass (goosegrass; [4]): 25
Goosegrass plant response rating (goosegrass; [5]): 0
Plant response rating, Goosegrass (goosegrass; [6]): 5
Plant response rating, Goosegrass (goosegrass; [7]): 10
Plant response rating, Cocklebur (cocklebur; [1]): 0
Plant response rating, Cocklebur (cocklebur; [2]): 5
Plant response rating, Cocklebur (cocklebur; [3]): 5
Plant response rating, Cocklebur (cocklebur; [4]): 25
Cocklebur plant response rating (cocklebur; [5]): 0
Plant response rating, Cocklebur (cocklebur; [6]): 0
Plant response rating, Cocklebur (cocklebur; [7]): 0
Plant response rating, Cocklebur (cocklebur; [8]): 0
Plant response rating, Russian Thistle (Russian thistle; 62 g ai/ha, scale 0 to 100): 0
Plant response rating, Russian Thistle (Russian thistle; [9]): 0
Plant response rating, Nightshade (nightshade; 62 g ai/ha, scale 0 to 100): 0
Plant response rating, Nightshade (nightshade; [9]): 0
Plant response rating (mustard, wild; 16 g ai/ha): 0
Plant response rating (mustard, wild; 31 g ai/ha): 0
Plant response rating (mustard, wild; 62 g ai/ha): 0
Plant response rating (mustard, wild; 125 g ai/ha): 10
Plant response rating (mustard, wild; 250 g ai/ha): 20
Plant response rating, Bromegrass, Downy (bromegrass, downy; [1]): 0
Plant response rating, Bromegrass, Downy (bromegrass, downy; [2]): 0
Plant response rating, Bromegrass, Downy (bromegrass, downy; [3]): 0
Plant response rating, Bromegrass, Downy (bromegrass, downy; [4]): 0
Bromegrass, Downy plant response rating (bromegrass, downy; [5]): 0
Plant response rating, Bromegrass, Downy (bromegrass, downy; [6]): 0
Plant response rating, Bromegrass, Downy (bromegrass, downy; [7]): 10
Plant response rating, Bromegrass, Downy (bromegrass, downy; [8]): 30
Plant response rating, Foxtail, Green (foxtail, green; [1]): 0
Plant response rating, Foxtail, Green (foxtail, green; [2]): 60
Plant response rating, Foxtail, Green (foxtail, green; [3]): 60
Plant response rating, Foxtail, Green (foxtail, green; [4]): 60
Foxtail, Green plant response rating (foxtail, green; [5]): 98
Plant response rating, Foxtail, Green (foxtail, green; [6]): 98
Plant response rating, Foxtail, Green (foxtail, green; [7]): 98
Plant response rating, Foxtail, Green (foxtail, green; [8]): 100
Plant response rating, Surinam Grass (surinam grass; [1]): 0
Plant response rating, Surinam Grass (surinam grass; [2]): 0
Plant response rating, Surinam Grass (surinam grass; [3]): 55
Plant response rating, Surinam Grass (surinam grass; [4]): 60
Plant response rating, Surinam Grass (surinam grass; [6]): 95
Plant response rating, Surinam Grass (surinam grass; [7]): 100
Plant response rating (wheat, winter; 16 g ai/ha): 0
Plant response rating (wheat, winter; 31 g ai/ha): 0
Plant response rating (wheat, winter; 62 g ai/ha): 0
Plant response rating (wheat, winter; 125 g ai/ha): 0
Plant response rating (wheat, winter; 250 g ai/ha): 0
Plant response rating (wheat, spring; 16 g ai/ha): 0
Plant response rating (wheat, spring; 31 g ai/ha): 0
Plant response rating (wheat, spring; 62 g ai/ha): 0
Plant response rating (wheat, spring; 125 g ai/ha): 0
Plant response rating (wheat, spring; 250 g ai/ha): 0
Plant response rating, Bermudagrass (bermudagrass; [1]): 0
Plant response rating, Bermudagrass (bermudagrass; [2]): 0
Plant response rating, Bermudagrass (bermudagrass; [3]): 0
Plant response rating, Bermudagrass (bermudagrass; [4]): 0
Bermudagrass plant response rating (bermudagrass; [5]): 0
Plant response rating, Bermudagrass (bermudagrass; [6]): 0
Plant response rating, Bermudagrass (bermudagrass; [7]): 0
Plant response rating, Bermudagrass (bermudagrass; [8]): 45

O=C1NCC(c2cccc(Br)c2)C1C(=O)Nc1ccccc1F (stereo not shown) [Compound 66]
Cupgrass, Woolly plant response rating (cupgrass, woolly; [10]): 10
Plant response rating, Cupgrass, Woolly (cupgrass, woolly; [6]): 75
Plant response rating, Cupgrass, Woolly (cupgrass, woolly; [7]): 80
Plant response rating, Cupgrass, Woolly (cupgrass, woolly; [8]): 85
Sunflower plant response rating (sunflower; [11]): 0
Plant response rating Sunflower (sunflower; 62 g ai/ha, scale 0 to 100): 0
Plant response rating Sunflower (sunflower; [9]): 0
Goosegrass plant response rating (goosegrass; [10]): 5
Plant response rating, Goosegrass (goosegrass; [6]): 5
Plant response rating, Goosegrass (goosegrass; [7]): 10
Cocklebur plant response rating (cocklebur; [10]): 0
Russian Thistle plant response rating (Russian thistle; [11]): 0
Plant response rating, Russian Thistle (Russian thistle; 62 g ai/ha, scale 0 to 100): 0
Plant response rating, Russian Thistle (Russian thistle; [9]): 0
Nightshade plant response rating (nightshade; [11]): 0
Plant response rating, Nightshade (nightshade; 62 g ai/ha, scale 0 to 100): 0
Plant response rating, Nightshade (nightshade; [9]): 0
Bromegrass, Downy plant response rating (bromegrass, downy; [10]): 0
Plant response rating, Bromegrass, Downy (bromegrass, downy; [6]): 0
Plant response rating, Bromegrass, Downy (bromegrass, downy; [7]): 0
Plant response rating, Bromegrass, Downy (bromegrass, downy; [8]): 5
Foxtail, Green plant response rating (foxtail, green; [10]): 50
Plant response rating, Foxtail, Green (foxtail, green; [6]): 80
Plant response rating, Foxtail, Green (foxtail, green; [7]): 90
Plant response rating, Foxtail, Green (foxtail, green; [8]): 98
Surinam Grass plant response rating (surinam grass; [10]): 0
Plant response rating, Surinam Grass (surinam grass; [6]): 0
Plant response rating, Surinam Grass (surinam grass; [7]): 75
Bermudagrass plant response rating (bermudagrass; [10]): 0
Plant response rating, Bermudagrass (bermudagrass; [6]): 0
Plant response rating, Bermudagrass (bermudagrass; [7]): 0
Plant response rating, Bermudagrass (bermudagrass; [8]): 0
